# Results taken from patent publication US11229636B2, “Substituted tetrahydroquinolinone compounds as ROR gamma modulators” (Aurigene Discovery Technologies Limited, priority 2015, dated 2022).
# Experiments:
# [1] = molecular target: ROR gamma ligand binding domain (Homo sapiens (Human), UniProt P51449); assay: ROR gamma luciferase reporter assay (GAL4-ROR gamma LBD, HEK293 cells); format: cell-based; settings: 48 hours treatment, read-out: RORγ luciferase Reporter assay: IC50 (nM) (in range)
# Experimental: The Ligand Binding Domain (LBD) of ROR gamma was cloned into pFN26A (BIND) hRluc-neo Flexi vector (Promega) which expresses a fusion protein comprised of a DNA binding domain of the yeast GAL4 gene, a linker segment and ROR gamma ligand binding domain. For the reporter assay 0.02×10^6 HEK293 cells were seeded per well in a 96 well plate in complete media and incubated overnight in an incubator with 5% CO2 at 37° C. before transfection. Cells were then co-transfected with pFN26A hRluc-neo Flexi vector containing the LBD of ROR gamma and pGL4.35 [luc2P/9XGAL4 UAS/Hygro] Vector (Promega) in low serum media. Post transfection and recovery, cells were treated with the test compounds for 48 hours. The assay was terminated using the Bright-Glo Luciferase assay system from Promega and the Luminescence was measured using a luminescence reader. The luminescence values were used to calculate the potency of the compounds.
# RORγ LBD = RORγ LBD (Homo sapiens (Human), UniProt P51449); assay: ROR gamma radio-ligand binding assay (3H 25-Hydroxycholesterol competitive displacement, dextran charcoal method); settings: for inhibition at 1 µM: 1 μM compound; for inhibition at 10 µM: 10 μM compound; for IC50: in range
# Sequence of RORγ LBD (P51449 268-518): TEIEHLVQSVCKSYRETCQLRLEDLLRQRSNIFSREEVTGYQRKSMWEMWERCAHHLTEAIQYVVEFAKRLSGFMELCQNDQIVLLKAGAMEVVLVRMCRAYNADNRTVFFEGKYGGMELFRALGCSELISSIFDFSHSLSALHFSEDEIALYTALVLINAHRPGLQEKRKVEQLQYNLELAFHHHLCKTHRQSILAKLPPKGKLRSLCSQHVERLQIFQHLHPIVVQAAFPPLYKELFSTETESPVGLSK
# Experimental: Gene corresponding to the ligand binding domain of RORγ (247-497 amino acids) was sub-cloned into pGEX4T1 vector. Transformants of E. coli BL21 (DE3) containing pGEX4T1-RORγ (247-497) were grown to an OD of 0.8 at 37° C. and induced with 0.5 mM isopropyl-β-D-thiogalactopyranoside (IPTG) for 18 hours at 18° C. Cells were harvested and resuspended in 20 mM Tris-HCl (pH 8.5), 0.3 M NaCl, 10% Glycerol, 2 mM β-Me (β-Mercaptoethanol), 2 mM CHAPS, protease inhibitors, 0.6 mM PMSF and Lysozyme. Supernatant of lysate was passed through glutathione sepharose 4B affinity beads (GE health care) pre-equilibrated with 20 mM Tris-HCl (pH 8.5), 0.3 M NaCl, 10% Glycerol, 2 mM β-Me. RORγ was eluted using a gradient of reduced glutathione (3-20 mM). Fractions containing RORγ protein were pooled, concentrated and passed through Superdex 75 gel filtration (GE health care) column equilibrated with 20 mM Na-phosphate pH 8.0, 0.2 M NaCl, 10% glycerol. The peak fractions from gel filtration column were pooled and stored at −80° C. for Binding assay.
# ROR gamma radioligand binding was performed using ^3H 25-Hydroxycholesterol in a competitive displacement assay using dextran charcoal method. Using 5 nM ^3H 25-Hydroxycholesterol with 300 ng RORγ LBD (in house expressed in E. coli) along with the compound were incubated in the binding buffer (50 mM HEPES, pH 7.5, 150 mM NaCl, 0.01% BSA and 5 mM MgCl2) for 30 min at room temperature. Then dextran-charcoal mixture (0.5% charcoal: 0.05% dextran) was used for separation and the supernatant was read on the Perkin Elmer Trilux Microbeta counter. Dose response curves were generated for 10 compound concentrations using GraphPad Prism software Version 5 (San Diego, Calif., USA) using non-linear regression curve fit for sigmoidal dose response (variable slope).
# Sequence of ROR gamma ligand binding domain (P51449 269-508): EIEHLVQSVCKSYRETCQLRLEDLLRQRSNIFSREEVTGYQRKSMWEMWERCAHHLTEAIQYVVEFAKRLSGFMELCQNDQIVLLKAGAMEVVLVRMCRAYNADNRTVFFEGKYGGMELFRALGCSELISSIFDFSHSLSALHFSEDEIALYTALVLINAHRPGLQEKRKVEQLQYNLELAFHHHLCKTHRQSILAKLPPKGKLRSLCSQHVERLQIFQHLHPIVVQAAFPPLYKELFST
SMILES,IC50 [1],inhibition at 1 µM (RORγ LBD),inhibition at 10 µM (RORγ LBD),IC50 (RORγ LBD)
"CCS(=O)(=O)c1ccc(CC(=O)Nc2ccc3c(n2)CCC(C)(c2nccn4c(C)cnc24)C3=O)cc1 (single isomer, unassigned) [compound 113, 2-(4-(ethylsulfonyl)phenyl)-N-(6-methyl-6-(3-methylimidazo[1,2-a]pyrazin-8-yl)-5-oxo-5,6,7,8-tetrahydroquinolin-2-yl)acetamide]",< 100 nM,–,–,–
"CCS(=O)(=O)c1ccc(CC(=O)Nc2ccc3c(n2)CCC(C)(c2nccn4c(C)cnc24)C3=O)cc1 (single isomer, unassigned) [compound 114, 2-(4-(ethylsulfonyl)phenyl)-N-(6-methyl-6-(3-methylimidazo[1,2-a]pyrazin-8-yl)-5-oxo-5,6,7,8-tetrahydroquinolin-2-yl)acetamide]",> 500 nM,–,–,–
"CCS(=O)(=O)c1ccc(CC(=O)Nc2ccc3c(n2)CCC(C)(c2cc(OC)nc(C)n2)C3=O)cc1 (single isomer, unassigned) [compound 115, 2-(4-(ethylsulfonyl)phenyl)-N-(6-(6-methoxy-2-methylpyrimidin-4-yl)-6-methyl-5-oxo-5,6,7,8-tetrahydroquinolin-2-yl)acetamide]",< 100 nM,–,–,–
"CCS(=O)(=O)c1ccc(CC(=O)Nc2ccc3c(n2)CCC(C)(c2cc(OC)nc(C)n2)C3=O)cc1 (single isomer, unassigned) [compound 116, 2-(4-(ethylsulfonyl)phenyl)-N-(6-(6-methoxy-2-methylpyrimidin-4-yl)-6-methyl-5-oxo-5,6,7,8-tetrahydroquinolin-2-yl)acetamide]",> 500 nM,–,–,–
"CCS(=O)(=O)c1ccc(CC(=O)Nc2ccc3c(n2)CCC(C)(c2nc(C)cn4ccnc24)C3=O)cc1 (single isomer, unassigned) [compound 117, 2-(4-(ethylsulfonyl)phenyl)-N-(6-methyl-6-(6-methylimidazo[1,2-a]pyrazin-8-yl)-5-oxo-5,6,7,8-tetrahydroquinolin-2-yl)acetamide]",> 500 nM,–,–,–
"CCS(=O)(=O)c1ccc(CC(=O)Nc2ccc3c(n2)CCC(C)(c2nc(C)cn4ccnc24)C3=O)cc1 (single isomer, unassigned) [compound 118, 2-(4-(ethylsulfonyl)phenyl)-N-(6-methyl-6-(6-methylimidazo[1,2-a]pyrazin-8-yl)-5-oxo-5,6,7,8-tetrahydroquinolin-2-yl)acetamide]",< 100 nM,–,–,–
"CCS(=O)(=O)c1ccc(CC(=O)Nc2ccc3c(n2)CCC(C)(c2cc(C)nc(C)n2)C3=O)nc1 (single isomer, unassigned) [compound 123, N-(6-(2,6-dimethylpyrimidin-4-yl)-6-methyl-5-oxo-5,6,7,8-tetrahydroquinolin-2-yl)-2-(5-(ethylsulfonyl)pyridin-2-yl)acetamide]",> 500 nM,–,–,–
"CCS(=O)(=O)c1ccc(CC(=O)Nc2cc(C)c3c(n2)CCC(C)(c2cccc(OC)n2)C3=O)cc1 (centres unmarked) [Compound 19, 2-(4-(ethylsulfonyl)phenyl)-N-(6-(6-methoxypyridin-2-yl)-4,6-dimethyl-5-oxo-5,6,7,8-tetrahydroquinolin-2-yl)acetamide]",–,98%,98%,150 to 300 nM
"CCS(=O)(=O)c1ccc(CC(=O)Nc2cc(C)c3c(n2)CCC(C)(c2ccc4c(c2)OCO4)C3=O)cc1 (centres unmarked) [Compound 42, N-(6-(benzo[d][1,3]dioxol-5-yl)-4,6-dimethyl-5-oxo-5,6,7,8-tetrahydroquinolin-2-yl)-2-(4-(ethylsulfonyl)phenyl)acetamide]",–,94%,92%,< 150 nM
"CCS(=O)(=O)c1ccc(CC(=O)Nc2cc(C)c3c(n2)CCC(C)(c2ccc4c(c2)ncn4C)C3=O)cc1 (centres unmarked) [Compound 43, N-(4,6-dimethyl-6-(1-methyl-1H-benzo[d]imidazol-5-yl)-5-oxo-5,6,7,8-tetrahydroquinolin-2-yl)-2-(4-(ethylsulfonyl)phenyl)acetamide]",–,82%,–,< 150 nM
"CCS(=O)(=O)c1ccc(CC(=O)Nc2ccc3c(n2)CCC(C)(n2nc(C)cc2C)C3=O)cc1 (centres unmarked) [Compound 46, N-(6-(3,5-dimethyl-1H-pyrazol-1-yl)-6-methyl-5-oxo-5,6,7,8-tetrahydroquinolin-2-yl)-2-(4-(ethylsulfonyl)phenyl)acetamide]",–,56%,92%,> 300 nM
CCS(=O)(=O)c1ccc(CC(=O)Nc2cc(C)c3c(n2)CCC(C)(n2cccn2)C3=O)cc1 (centres unmarked) [Compound 47],–,82%,98%,< 150 nM
"CCS(=O)(=O)c1ccc(CC(=O)Nc2cc(C)c3c(n2)CCC(C)(c2ncc(OC)cn2)C3=O)cc1 (centres unmarked) [Compound 61, 2-(4-(ethylsulfonyl)phenyl)-N-(6-(5-methoxypyrimidin-2-yl)-4,6-dimethyl-5-oxo-5,6,7,8-tetrahydroquinolin-2-yl)acetamide]",–,90%,74%,< 150 nM
"CCS(=O)(=O)c1ccc(CC(=O)Nc2cc(C)c3c(n2)CCC(C)(c2cccnc2O)C3=O)cc1 (centres unmarked) [Compound 84, 2-(4-(ethylsulfonyl)phenyl)-N-(6-(2-hydroxypyridin-3-yl)-4,6-dimethyl-5-oxo-5,6,7,8-tetrahydroquinolin-2-yl)acetamide]",–,82%,100%,150 to 300 nM
"CCS(=O)(=O)c1ccc(CC(=O)Nc2cc(C)c3c(n2)CCC(C)(c2ncccc2O)C3=O)cc1 (centres unmarked) [Compound 85, 2-(4-(ethylsulfonyl)phenyl)-N-(6-(3-hydroxypyridin-2-yl)-4,6-dimethyl-5-oxo-5,6,7,8-tetrahydroquinolin-2-yl)acetamide]",–,62%,95%,> 300 nM
"CCS(=O)(=O)c1ccc(CC(=O)Nc2cc(C)c3c(n2)CCC(C)(c2c(C)ccnc2O)C3=O)cc1 (centres unmarked) [Compound 86, 2-(4-(ethylsulfonyl)phenyl)-N-(6-(2-hydroxy-4-methylpyridin-3-yl)-4,6-dimethyl-5-oxo-5,6,7,8-tetrahydroquinolin-2-yl)acetamide]",–,72%,100%,< 150 nM
"CCS(=O)(=O)c1ccc(CC(=O)Nc2ccc3c(n2)CC(C)(C)C(c2ncccc2O)C3=O)cc1 (centres unmarked) [Compound 87, 2-(4-(ethylsulfonyl)phenyl)-N-(6-(3-hydroxypyridin-2-yl)-7,7-dimethyl-5-oxo-5,6,7,8-tetrahydroquinolin-2-yl)acetamide]",–,82%,99%,150 to 300 nM
CCc1cc(C2(C)CCc3nc(NC(=O)Cc4ccc(S(=O)(=O)CC)cc4)ccc3C2=O)nc(C)n1 (centres unmarked) [Compound-131],–,51%,42%,–
"CCS(=O)(=O)c1ccc(CC(=O)Nc2cc(C)c3c(n2)CCC(C)(c2cc(C)nc(OC)n2)C3=O)cc1 (centres unmarked) [Compound-135, 2-(4-(ethylsulfonyl)phenyl)-N-(6-(2-methoxy-6-methylpyrimidin-4-yl)-4,6-dimethyl-5-oxo-5,6,7,8-tetrahydroquinolin-2-yl)acetamide]",–,90%,104%,< 150 nM
"CCS(=O)(=O)c1ccc(CC(=O)Nc2cc3c(cn2)C(=O)C(C)(c2cc(C)nc(C)n2)CC3)cc1 (centres unmarked) [compound 128, N-(7-(2,6-dimethylpyrimidin-4-yl)-7-methyl-8-oxo-5,6,7,8-tetrahydroisoquinolin-3-yl)-2-(4-(ethylsulfonyl)phenyl)acetamide]",–,79%,110%,< 150 nM
"CCc1nc(C)cc(C2(C)CCc3nc(NC(=O)Cc4ccc(S(=O)(=O)CC)cc4)ccc3C2=O)n1 (centres unmarked) [compound 132, N-(6-(2-ethyl-6-methylpyrimidin-4-yl)-6-methyl-5-oxo-5,6,7,8-tetrahydroquinolin-2-yl)-2-(4-(ethylsulfonyl)phenyl)acetamide]",–,99%,103%,< 150 nM
"CCc1cc(C2(C)CCc3nc(NC(=O)Cc4ccc(S(=O)(=O)CC)cc4)ccc3C2=O)nc(CC)n1 (centres unmarked) [compound 133, N-(6-(2,6-diethylpyrimidin-4-yl)-6-methyl-5-oxo-5,6,7,8-tetrahydroquinolin-2-yl)-2-(4-(ethylsulfonyl)phenyl)acetamide]",–,96%,109%,< 150 nM
